Data published in US7132547B2, “Preventives/remedies for urinary disturbance” (priority 2001, dated 2006).

Biological target: T1, human erythrocyte-derived acetylcholinesterase (Homo sapiens, UniProt P22303)
T1 construct: Human erythrocyte-drived acetylcholinesterase (Sigma) was dissolved in distilled water; purchased Sigma; host or cells: human erythrocytes (natural source)
Experiment: Measurement of acetylcholinesterase inhibitory activity (acetylthiocholine / Ellman method)
Assay type: biochemical
Details: 50% inhibition concentration, repeated at least three times, read-out: AchE: IC50
Experimental: a) Measurement of Acetylcholinesterase Inhibitory Activity
Acetylcholinesterase inhibitory activity of Example compounds was measured using human erythrocyte-derived acetylcholinesterase by an acetylthiocholine method (Ellman method).
Human erythrocyte-drived acetylcholinesterase (Sigma) was dissolved in distilled water to the concentration of 0.2 IU/mL to obtain an enzyme specimen. 20 μL of a drug solution, 30 μL of 80 mM Tris-HCL (pH 7.4), 50 μL of an enzyme specimen and 50 μL of 5 mM 5,5-dithio-bis (2-nitrobenzoic acid)(Sigma) were dispensed on a 96-well microplate, and this was shaken for 10 seconds. 50 μL of 4 mM acetylthiocholine iodide (Sigma) was added, this was shaken again and, immediately after, increase in absorbance at 414 nm was measured at 30 second intervals for 10 minutes. Enzyme activity was measured by the following equation: R=5.74×10^−7×ΔA (wherein R represents enzyme activity (mol), and ΔA represents increase in absorbance at 414 nm)
Regarding each compound, the experiment was repeated at least three times to obtain 50% inhibition concentration (IC50). According to the similar method to the above-mentioned, acetylcholinesterase inhibitory activity of distigmine which is a known acetylcholinesterase inhibitor was measured.

T1 sequence (P22303 32-617 isoform P22303-2 limits assumed): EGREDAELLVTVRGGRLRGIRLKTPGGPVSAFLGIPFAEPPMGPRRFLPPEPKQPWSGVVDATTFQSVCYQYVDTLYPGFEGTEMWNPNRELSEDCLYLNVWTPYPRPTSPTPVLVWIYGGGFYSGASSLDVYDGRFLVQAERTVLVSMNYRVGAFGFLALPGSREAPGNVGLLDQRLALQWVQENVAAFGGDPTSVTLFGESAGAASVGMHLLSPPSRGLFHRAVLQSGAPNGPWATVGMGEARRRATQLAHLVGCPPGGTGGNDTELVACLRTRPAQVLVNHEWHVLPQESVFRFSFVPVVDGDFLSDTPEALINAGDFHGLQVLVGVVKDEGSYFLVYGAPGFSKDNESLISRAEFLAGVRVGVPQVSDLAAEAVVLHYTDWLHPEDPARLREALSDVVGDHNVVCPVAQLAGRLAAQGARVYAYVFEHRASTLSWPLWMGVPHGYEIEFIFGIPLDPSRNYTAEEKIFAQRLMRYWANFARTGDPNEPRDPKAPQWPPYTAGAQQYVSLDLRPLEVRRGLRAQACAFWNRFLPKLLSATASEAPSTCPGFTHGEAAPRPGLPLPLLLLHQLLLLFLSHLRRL

COc1ccccc1CCNCCCCCC(=O)c1cc2c3c(c1)CCN3C(=O)CC2.Cl [Example 20, 8-(6-[[2-(2-Methoxyphenyl)ethyl]amino]hexanoyl]-1,2,5,6-tetrahydro-4H-pyrrolo[3,2,1-ij]quinolin-4-one hydrochloride]
IC50: 179 nM
